# What was measured:
# [1] = tested on: human colorectal cancer cell line HT29; experiment: In vitro anti-cancer cell experiment (MTT), HT29; format: cell-based; conditions: for IC50 (50% inhibition of cell viability, MTT): HT29, P<0.05
# Description: (§1) a. Cell lines: Human pancreatic cancer cell line Panc-1, human colorectal cancer cell line HT29 and human lung cancer cell line NCI-H460; the medium: s DMEM (Gibco BRL), containing 10% fetal calf serum (Gibco BRL) and 2 mM L-glutamine (Gibco BRL).
# (§2) b. Test samples: example compounds 3, 18, 25 and 27.
# (§3) The samples were dissolved in dimethyl sulfoxide (DMSO, Sigma, United States) and medium was added to the final concentration of 0.5%. Cisplatin was as positive control of (CDDP, purity 96%, from Kunming Institute of Precious Metals).
# (§4) c. Method: cells were digested with trypsin and dispersed into single cells in the medium containing penicillin (25 U/ml) and streptomycin (25 μg/ml). The cells were seeded in 96-well culture plates (Corning Incorporated), at 37° C., in a humidified atmosphere with 5% CO2 present for 24 hours. The culture medium was removed, […] test compounds were added, cultured for 48 hours. Culture medium was removed and […] (MTT, USA Sigma products) was added. The result was assayed by SK601-based microplate reader (Japan Seikagaku company's products), 570 nm/630 nm optical density (OD).
# (§5) Calculation of cell viability: (Experimental group OD/control OD)×100%; Positive control CDDP was treated in the same way.
# mice sarcoma S180 = experiment: Growth inhibition of S180 sarcoma in mice; format: in vivo
# From the text: (§6) Test samples: example compounds 18, 24, 25, 26 and 27
# (§7) Test animals: Kunming kinds of healthy mice (19-21 g), 10 mice (5 male and 5 female)/group, from Beijing Institute of Military Medical Sciences Animal Center.
# (§8) Tumor strains: mice sarcoma S180 for ascites passaged from Beijing Academy of Military Medical Institute of Pharmacology.
# (§9) Xenografts cultured S180 tumor cells were implanted subcutaneously into the flank region of mice and tumors were allowed to grow to the desired average size of 100 mg. The mice were randomized into control and treatment groups with 10 mice per group. The control group was injected with the vehicle used to dissolve the drug. Other groups received the test compounds (example compound 18, 24, 25, 26 and 27) and positive group, cyclophosphamide (CTX) and 5-fluorouracil (5-FU) at the dose and schedule as indicated in Table VI. Injections were I.V. via the tail vein.
# [2] = Body weight of mice in the S180 sarcoma study
# From the text: as §6, §7, §8, §9
# [3] = tested on: human lung cancer cell line NCI-H460; experiment: In vitro anti-cancer cell experiment (MTT), NCI-H460; format: cell-based; conditions: NCI-H460, P<0.05
# Description: as §1, §2, §3, §4, §5
# [4] = tested on: Human pancreatic cancer cell line Panc-1; experiment: In vitro anti-cancer cell experiment (MTT), Panc-1; format: cell-based
# Description: as §1, §2, §3, §4, §5
# [5] = Chronic toxicity, 30 days, mice
# Description: Animals were given an injection in the tail vein with approximately 100 μl volume of compound formulation or vehicle formulation. Mice body weights were measured daily along with daily observation for 30 days.
# (1) The general behavior, body weight and organ weight of animal.
# (2) Blood test: white blood cells (WB), red blood cells (RB), hemoglobin (Hb), alanine aminotransferase (ALT), aspartate aminotransferase (AST), alkaline phosphatase (ALP), serum uric acid (UA), blood urea (UREA) and creatinine (Cr).
# (3) Pathological examination: heart, liver, spleen, lung and kidney.
# [6] = S180 mice, I.V. tail vein, 1 mg/kg
# [7] = S180 mice, I.V. tail vein, 2 mg/kg
# [8] = S180 mice, I.V. tail vein, 4 mg/kg
# [9] = S180 mice, 24 one dose, 25 three doses, 26 three doses, 27 one dose
# [10] = S180 mice, I.V. tail vein, 25 mg/kg
# [11] = S180 mice, I.V. tail vein, 15 mg/kg
# [12] = S180 mice, I.V. tail vein, 5 mg/kg
# [13] = S180 mice, I.V. tail vein, 10 mg/kg
# [14] = S180 mice, I.V. tail vein, 8 mg/kg
# [15] = S180 mice, I.V. tail vein, 12 mg/kg
# [16] = mice, tail vein, 2, 4 and 8 mg/kg, 30 days, vs control group
molecule,measurement,setting,value
"9,10-Dihydro-10-(N-methyl-1-naphthoylamino) gambogyl (N-methyl)-1-naphthoylamine [Example 25]","IC50 (50% inhibition of cell viability, MTT)",[1],3.75 µg/mL
same,Inhibition rate (%),mice sarcoma S180; [6],44.6%
same,Tumor weight,mice sarcoma S180; [6],1.34 ± 0.47 g
same,Inhibition rate (%),mice sarcoma S180; [7],58.3%
same,Tumor weight,mice sarcoma S180; [7],1.00 ± 0.34 g
same,Inhibition rate (%),mice sarcoma S180; [8],65.2%
same,Tumor weight,mice sarcoma S180; [8],0.84 ± 0.35 g
same,"anti-tumor efficacy (in vivo), statistical significance",mice sarcoma S180; [9],statistically significant
same,body weight/g After ad.,"[2]; mouse, in vivo, iv, 1 mg/kg",24.75 ± 2.56 g
same,body weight/g Before ad.,"[2]; mouse, in vivo, iv, 1 mg/kg",22.59 ± 1.36 g
same,body weight/g Without tumor,"[2]; mouse, in vivo, iv, 1 mg/kg",23.27 ± 2.16 g
same,body weight/g After ad.,"[2]; mouse, in vivo, iv, 2 mg/kg",22.75 ± 3.51 g
same,body weight/g Before ad.,"[2]; mouse, in vivo, iv, 2 mg/kg",22.36 ± 1.30 g
same,body weight/g Without tumor,"[2]; mouse, in vivo, iv, 2 mg/kg",21.69 ± 3.13 g
same,body weight/g After ad.,"[2]; mouse, in vivo, iv, 4 mg/kg",21.47 ± 3.69 g
same,body weight/g Before ad.,"[2]; mouse, in vivo, iv, 4 mg/kg",22.38 ± 1.80 g
same,body weight/g Without tumor,"[2]; mouse, in vivo, iv, 4 mg/kg",20.77 ± 3.37 g
"O=P1(N(CCCl)CCCl)NCCCO1 (centres unmarked) [CTX, cyclophosphamide, reference compound]",Inhibition rate (%),mice sarcoma S180; [10],48.6%
same,Tumor weight,mice sarcoma S180; [10],1.24 ± 0.50 g
same,body weight/g Without tumor,[2]; [10],23.94 ± 2.60 g
same,body weight/g After ad.,"[2]; S180 mice, I.V. tail vein, 25 mg/kg, after administration",25.44 ± 2.92 g
same,body weight/g Before ad.,"[2]; S180 mice, I.V. tail vein, 25 mg/kg, before administration",22.64 ± 1.28 g
"CC(C)=CCCC1(C)C=Cc2c(O)c3c(c(CC=C(C)C)c2O1)OC12C(=C[C@H]4CC1C(C)(C)OC2(C/C=C(/C)C(=O)OCCO)C4=O)C3=O (some centres unmarked) [Example 3, Ethylene Glycol Gambogate]",IC50 (the compound concentration producing 50% inhibition of colony formation) on NCI-H460,[3],6.18 µg/mL
same,IC50 (the compound concentration producing 50% inhibition of colony formation) on Panc-1,"[4]; Panc-1, P<0.05",23.4 µg/mL
"O=c1[nH]cc(F)c(=O)[nH]1 [Example 5-FU, 5-fluorouracil, reference compound]",IC50,"[1]; Homo sapiens, HT-29, HT29, 48 hours, MTT, second of two HT29 columns",92.3 µM
same,Inhibition rate (%),mice sarcoma S180; [11],43.2%
same,Tumor weight,mice sarcoma S180; [11],1.37 ± .033 g
same,body weight/g After ad.,"[2]; mouse, in vivo, iv, 15 mg/kg",28.66 ± 2.89 g
same,body weight/g Before ad.,"[2]; mouse, in vivo, iv, 15 mg/kg",23.07 ± 1.75 g
same,body weight/g Without tumor,"[2]; mouse, in vivo, iv, 15 mg/kg",27.19 ± 2.88 g
same,IC50,"[4]; Homo sapiens, Panc-1, 48 hours, MTT",193 µM
"CCCCCN(CCCCC)C(=O)/C(C)=C\CC12OC(C)(C)C3C[C@H](C=C4C(=O)c5c(O)c6c(c(CC=C(C)C)c5OC431)OC(C)(CCC=C(C)C)C=C6)C2=O (some centres unmarked) [Example 18, Gambogyl Dipentylamine]",Inhibition rate (%),mice sarcoma S180; [12],40.3%
same,Tumor weight,mice sarcoma S180; [12],1.44 ± 0.39 g
same,Inhibition rate (%),mice sarcoma S180; [13],52.5%
same,Tumor weight,mice sarcoma S180; [13],1.14 ± 0.42 g
same,body weight/g After ad.,"[2]; mouse, in vivo, iv, 5 mg/kg",27.91 ± 4.08 g
same,body weight/g Before ad.,"[2]; mouse, in vivo, iv, 5 mg/kg",22.80 ± 1.73 g
same,body weight/g Without tumor,"[2]; mouse, in vivo, iv, 5 mg/kg",26.49 ± 4.62 g
same,body weight/g After ad.,"[2]; mouse, in vivo, iv, 10 mg/kg",26.08 ± 2.8 g
same,body weight/g Before ad.,"[2]; mouse, in vivo, iv, 10 mg/kg",27.32 ± 2.2 g
same,body weight/g Without tumor,"[2]; mouse, in vivo, iv, 10 mg/kg",25.06 ± 2.09 g
same,IC50 (the compound concentration producing 50% inhibition of colony formation) on NCI-H460,[3],4.73 µg/mL
"COC(=O)/C(C)=C\CC12OC(C)(C)C3C[C@H](C=C4C(=O)c5c(OC6O[C@H](CO)[C@@H](O)[C@@H](O)[C@H]6O)c6c(c(CC=C(C)C)c5OC431)OC(C)(CCC=C(C)C)C=C6)C2=O (stereo partly drawn) [Example 24, Methyl-6-O-D-allosyl gambogate]",Inhibition rate (%),mice sarcoma S180; [13],61.0%
same,Tumor weight,mice sarcoma S180; [13],0.94 ± 0.26 g
same,"anti-tumor efficacy (in vivo), statistical significance",mice sarcoma S180; [9],statistically significant
same,body weight/g After ad.,"[2]; mouse, in vivo, iv, 10 mg/kg",19.77 ± 1.88 g
same,body weight/g Before ad.,"[2]; mouse, in vivo, iv, 10 mg/kg",21.67 ± 1.26 g
same,body weight/g Without tumor,"[2]; mouse, in vivo, iv, 10 mg/kg",18.89 ± 1.45 g
"COC(=O)/C(C)=C\CC12OC(C)(C)C3C[C@H](C=C4C(=O)c5c(OC(=O)c6ccc(OC7O[C@H](CO)[C@@H](O)[C@@H](O)[C@H]7O)cc6)c6c(c(CC=C(C)C)c5OC431)OC(C)(CCC=C(C)C)C=C6)C2=O (stereo partly drawn) [Example 26, Methyl-6-(4-O-D-allosyl)benzoyl gambogate]",Inhibition rate (%),mice sarcoma S180; [8],53.7%
same,Tumor weight,mice sarcoma S180; [8],1.12 ± 0.40 g
same,Inhibition rate (%),mice sarcoma S180; [14],60.2%
same,Tumor weight,mice sarcoma S180; [14],0.96 ± 0.32 g
same,Inhibition rate (%),mice sarcoma S180; [15],69.3%
same,Tumor weight,mice sarcoma S180; [15],0.74 ± 0.11 g
same,"anti-tumor efficacy (in vivo), statistical significance",mice sarcoma S180; [9],statistically significant
same,body weight/g After ad.,"[2]; mouse, in vivo, iv, 4 mg/kg",23.71 ± 3.85 g
same,body weight/g Before ad.,"[2]; mouse, in vivo, iv, 4 mg/kg",25.89 ± 2.62 g
same,body weight/g Without tumor,"[2]; mouse, in vivo, iv, 4 mg/kg",22.54 ± 3.42 g
same,body weight/g After ad.,"[2]; mouse, in vivo, iv, 8 mg/kg",21.42 ± 0.88 g
same,body weight/g Before ad.,"[2]; mouse, in vivo, iv, 8 mg/kg",24.41 ± 2.28 g
same,body weight/g Without tumor,"[2]; mouse, in vivo, iv, 8 mg/kg",20.56 ± 0.54 g
same,body weight/g After ad.,"[2]; mouse, in vivo, iv, 12 mg/kg",26.71 ± 5.56 g
same,body weight/g Before ad.,"[2]; mouse, in vivo, iv, 12 mg/kg",25.58 ± 2.48 g
same,body weight/g Without tumor,"[2]; mouse, in vivo, iv, 12 mg/kg",26.07 ± 5.40 g
same,alanine aminotransferase (ALT),"[5]; high dose group, recovery to normal level",slightly incretion
same,Pathological examination: heart,[5]; [16],no abnormal of heart tissue
same,Pathological examination: liver,[5]; [16],no abnormal tissue in rat liver slices
same,Pathological examination: lung,[5]; [16],no abnormal tissue in rat lung slices
same,Pathological examination: renal,[5]; [16],no abnormal tissue in rat renal slices
same,Pathological examination: spleen,[5]; [16],no abnormal tissue in rat spleen slices
same,"toxic pathological changes of the heart, liver, spleen, lung and kidney","[5]; three dose mice groups, continuous administration for 30 days",no toxic pathological changes
"CC(C)=CCCC1(C)C=Cc2c(c(CC=C(C)C)c3c(c2OC(=O)c2ccc(OC4O[C@H](CO)[C@@H](O)[C@@H](O)[C@H]4O)cc2)C(=O)C2=C[C@H]4CC5C(C)(C)OC(C/C=C(/C)C(=O)N(C)Cc6cccc7ccccc67)(C4=O)C25O3)O1 (stereo partly drawn) [Example 27, 6-(4-O-D-Allosylbenzoyl) gambogyl (N-methyl-1-naphthalene) methylamine]","IC50 (50% inhibition of cell viability, MTT)",[1],1.19 µg/mL
same,"anti-tumor efficacy (in vivo), statistical significance","mice sarcoma S180; mouse, in vivo",statistically significant
same,Inhibition rate (%),"mice sarcoma S180; mouse, in vivo, iv, 25 mg/kg",32.5%
same,Tumor weight,"mice sarcoma S180; mouse, in vivo, iv, 25 mg/kg",1.63 ± 0.47 g
same,Inhibition rate (%),"mice sarcoma S180; mouse, in vivo, iv, 30 mg/kg",37.0%
same,Tumor weight,"mice sarcoma S180; mouse, in vivo, iv, 30 mg/kg",1.52 ± 0.30 g
same,body weight/g After ad.,"[2]; mouse, in vivo, iv, 25 mg/kg",20.83 ± 1.36 g
same,body weight/g Before ad.,"[2]; mouse, in vivo, iv, 25 mg/kg",20.90 ± 1.06 g
same,body weight/g Without tumor,"[2]; mouse, in vivo, iv, 25 mg/kg",19.00 ± 1.39 g
same,body weight/g After ad.,"[2]; mouse, in vivo, iv, 30 mg/kg",20.22 ± 2.11 g
same,body weight/g Before ad.,"[2]; mouse, in vivo, iv, 30 mg/kg",19.07 ± 1.40 g
same,body weight/g Without tumor,"[2]; mouse, in vivo, iv, 30 mg/kg",18.67 ± 2.08 g
